Data taken from ChEMBL document CHEMBL1201862, “PubChem BioAssay data set” (2004).
“And” between values parts separate entries of the source, which are not always exact repeats. Equal values may be shown once.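 The compound was tested at five concentrations on cells cultured in 96-well plates, with a 48-hour exposure period. The concentration for 50% growth inhibition is given as GI50.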 The source made the active and inactive calls. No stated cut-off is given here; in the data, active = GI50 up to about 1.1 µM and inactive = higher.

Key:
Assay in all cases: NCI-60 cell line screen, 48 h
[1] = tested on: PC-3
[2] = tested on: RXF 393
[3] = tested on: HOP-62
[4] = tested on: TK-10
[5] = tested on: SF-539
[6] = tested on: Hs-578T
[7] = tested on: 786-0
[8] = tested on: SW-620
[9] = tested on: MOLT-4
[10] = tested on: CAKI-1
[11] = tested on: K562
[12] = tested on: Malme-3M
[13] = tested on: DU-145
[14] = tested on: OVCAR-8
[15] = tested on: LOX IMVI
[16] = tested on: OVCAR-3
[17] = tested on: MCF7
[18] = tested on: OVCAR-4
[19] = tested on: KM12
[20] = tested on: A498
[21] = tested on: U-251
[22] = tested on: CCRF-CEM
[23] = tested on: SF-295
[24] = tested on: SN12C
[25] = tested on: SK-MEL-28
[26] = tested on: ACHN
[27] = tested on: HCT-15
[28] = tested on: IGROV-1
[29] = tested on: UACC-62
[30] = tested on: HOP-92
[31] = tested on: NCI-H460
[32] = tested on: SK-MEL-2
[33] = tested on: HL-60
[34] = tested on: NCI-H226
[35] = tested on: EKVX
[36] = tested on: RPMI-8226
[37] = tested on: COLO 205
[38] = tested on: T47D
[39] = tested on: SK-OV-3
[40] = tested on: SK-MEL-5
[41] = tested on: OVCAR-5
[42] = tested on: MDA-N
[43] = tested on: A549
[44] = tested on: SF-268
[45] = tested on: NCI-H522
[46] = tested on: NCI/ADR-RES
[47] = tested on: SNB-75
[48] = tested on: SNB-19
[49] = tested on: MDA-MB-435
[50] = tested on: HCT-116
[51] = tested on: HT-29
[52] = tested on: MDA-MB-231
[53] = tested on: UACC-257
[54] = tested on: NCI-H23
[55] = tested on: UO-31
[56] = tested on: M14
[57] = tested on: HCC 2998
[58] = tested on: SR

Q: Which GI50 [1] does the source give for CC(=O)OCC1OC(n2c(-c3ccccc3)c(/N=N/c3ccc(Cl)cc3)c(C)c(C#N)c2=S)C(OC(C)=O)C(OC(C)=O)C1OC(C)=O (centres undefined) here?
A: 9.4 µM (inactive) and 5.09 µM (inactive)

Q: What about the GI50 [2] of the same compound?
A: 17.4 µM (inactive) and 13.2 µM (inactive)

Q: And the GI50 [3]?
A: 15.6 µM (inactive) and 27.8 µM (inactive)

Q: And the GI50 [4]?
A: 33.8 µM (inactive) and 24.6 µM (inactive)

Q: What about the GI50 [5] of the same compound?
A: 14 µM (inactive) and 19.6 µM (inactive)

Q: And the GI50 [6]?
A: 15.8 µM (inactive) and 15.3 µM (inactive)

Q: What about the GI50 [7] of the same compound?
A: 19.5 µM (inactive) and 23.9 µM (inactive)

Q: What about the GI50 [8] of the same compound?
A: 7.01 µM (inactive) and 12.4 µM (inactive)

Q: And the GI50 [9]?
A: 4.91 µM (inactive) and 3.56 µM (inactive)

Q: What about the GI50 [10] of the same compound?
A: 24.3 µM (inactive) and 14.3 µM (inactive)

Q: And the GI50 [11]?
A: 6.76 µM (inactive) and 11.8 µM (inactive)

Q: Which results are given for COc1cccc(N(CN2CC=CC2=O)C(C)=O)c1?
A: GI50 [12]: > 100 µM (inactive); GI50 [1]: > 100 µM (inactive); GI50 [2]: > 100 µM (inactive); GI50 [3]: > 100 µM (inactive); GI50 [13]: > 100 µM (inactive); GI50 [14]: > 100 µM (inactive); GI50 [15]: > 100 µM (inactive); GI50 [16]: > 100 µM (inactive); GI50 [17]: > 100 µM (inactive); GI50 [18]: > 100 µM (inactive); GI50 [19]: > 100 µM (inactive); GI50 [20]: > 100 µM (inactive); GI50 [21]: > 100 µM (inactive); GI50 [22]: > 100 µM (inactive); GI50 [23]: > 100 µM (inactive); GI50 [4]: > 100 µM (inactive); GI50 [24]: > 100 µM (inactive); GI50 [25]: > 100 µM (inactive); GI50 [26]: > 100 µM (inactive); GI50 [27]: > 100 µM; GI50 [5]: > 100 µM (inactive); GI50 [28]: > 100 µM (inactive); GI50 [29]: > 100 µM (inactive); GI50 [30]: > 100 µM (inactive); GI50 [31]: > 100 µM (inactive); GI50 [32]: > 100 µM (inactive); GI50 [6]: > 100 µM (inactive); GI50 [33]: > 100 µM (inactive); GI50 [34]: > 100 µM (inactive); GI50 [35]: > 100 µM (inactive); GI50 [36]: > 100 µM (inactive); GI50 [37]: > 100 µM (inactive); GI50 [38]: > 100 µM (inactive); GI50 [39]: > 100 µM (inactive); GI50 [40]: > 100 µM (inactive); GI50 [41]: > 100 µM (inactive); GI50 [7]: > 100 µM (inactive); GI50 [42]: > 100 µM (inactive); GI50 [43]: > 100 µM (inactive); GI50 [44]: > 100 µM (inactive); GI50 [8]: > 100 µM (inactive); GI50 [9]: > 100 µM (inactive); GI50 [45]: > 100 µM (inactive); GI50 [46]: > 100 µM (inactive); GI50 [47]: > 100 µM (inactive); GI50 [48]: > 100 µM (inactive); GI50 [49]: > 100 µM (inactive); GI50 [10]: > 100 µM (inactive); GI50 [50]: > 100 µM (inactive); GI50 [51]: > 100 µM (inactive); GI50 [52]: > 100 µM (inactive); GI50 [53]: > 100 µM (inactive); GI50 [11]: > 100 µM (inactive); GI50 [54]: > 100 µM (inactive); GI50 [55]: > 100 µM (inactive); GI50 [56]: > 100 µM (inactive); GI50 [57]: > 100 µM (inactive)

Q: What does the source list for O=C1CSC(=S)N1 [RHODANINE]?
A: GI50 [12]: > 100 µM (inactive); GI50 [1]: > 100 µM (inactive); GI50 [3]: > 100 µM (inactive); GI50 [13]: > 100 µM (inactive); GI50 [14]: > 100 µM (inactive); GI50 [15]: > 100 µM (inactive); GI50 [16]: > 100 µM (inactive); GI50 [17]: > 100 µM (inactive); GI50 [19]: > 100 µM (inactive); GI50 [21]: > 100 µM (inactive); GI50 [22]: > 100 µM (inactive); GI50 [23]: > 100 µM (inactive); GI50 [4]: > 100 µM (inactive); GI50 [24]: > 100 µM (inactive); GI50 [25]: > 100 µM (inactive); GI50 [26]: > 100 µM (inactive); GI50 [27]: > 100 µM; GI50 [5]: > 100 µM (inactive); GI50 [28]: > 100 µM (inactive); GI50 [30]: > 100 µM (inactive); GI50 [31]: > 100 µM (inactive); GI50 [32]: > 100 µM (inactive); GI50 [6]: > 100 µM (inactive); GI50 [33]: > 100 µM (inactive); GI50 [34]: > 100 µM (inactive); GI50 [35]: > 100 µM (inactive); GI50 [36]: > 100 µM (inactive); GI50 [37]: > 100 µM (inactive); GI50 [38]: > 100 µM (inactive); GI50 [40]: > 100 µM (inactive); GI50 [41]: > 100 µM (inactive); GI50 [7]: > 100 µM (inactive); GI50 [42]: > 100 µM (inactive); GI50 [43]: > 100 µM (inactive); GI50 [44]: > 100 µM (inactive); GI50 [8]: > 100 µM (inactive); GI50 [9]: > 100 µM (inactive); GI50 [45]: > 100 µM (inactive); GI50 [46]: > 100 µM (inactive); GI50 [47]: > 100 µM (inactive); GI50 [48]: > 100 µM (inactive); GI50 [10]: > 100 µM (inactive); GI50 [50]: > 100 µM (inactive); GI50 [58]: > 100 µM (inactive); GI50 [52]: > 100 µM (inactive); GI50 [53]: > 100 µM (inactive); GI50 [11]: > 100 µM (inactive); GI50 [54]: > 100 µM (inactive); GI50 [55]: > 100 µM (inactive); GI50 [56]: > 100 µM (inactive); GI50 [57]: > 100 µM (inactive)
